Assay results: US9487462B2, “Inhibitors of matrix metalloproteinases” (PharmaHungary 2000 Kft., priority 2010, dated 2016)
Where a name gives a salt, the structure may show the parent alone.

Assays:
[1] = molecular target: MMP9 (Homo sapiens, UniProt P14780); assay: MMP activity assay (fluorogenic substrate), MMP9 catalytic domain; type: biochemical; conditions: Table 2
Experimental: (§1) MMP activity assays were conducted as follows: MMP2, MMP9, MMP13 catalytic domain was expressed in E. coli in form of inclusion bodies followed by refolding and purification.
(§2) The Protocol of the Activity Assay:
(§3) Stock solution of substrate (Mca-Lys-Pro-Leu-Gly-Leu-Dpa-Ala-Arg-NH2) was prepared in DMSO at a concentration of 6 mM. Assays were performed in an assay buffer (50 mM Tris pH 7.5, 300 mM NaCl, 10 μM ZnSO4, 5 mM CaCl2, 0.005% Brij-35). The final DMSO concentration in all assays was 1.0%. […] The assays were carried out at 37° C. The fluorescence changes, resulting from the substrate cleavage, were detected using excitation at 340 nm and emission wavelength of 405 nm using a Wallac 1420 Microplate Reader. The reaction mixtures were preincubated with the inhibitors for 30 minutes. The reactions were started by the addition of MMP substrate, and the fluorescence intensity changes were measured after 60 minutes. The obtained fluorescence values were normalized and % inhibition values calculated. Dose response curves were determined from 6 concentration points using three fold dilution steps, each concentration point was determined in duplicate. IC50 values were calculated from the dose response curves.

[2] = Cytotoxicity, alamarBlue viability, HCT116; type: cell-based; conditions: human, HCT116 colon tumor cells, 48 hours incubation, read-out: HCT116 LC50
Experimental: (§4) Beside the inhibitory effect on MMPs we tested the cytotoxicity of the selected compounds. These measurements were done in parallel on two cell lines. One of them was the healthy human fibroblast cell line MRC-5 while the other was the human colon tumor cell line HCT116. The viability of the cells was monitored using alamarBlue. This dye is reduced by the cells resulting in an increased fluorescent signal which is proportional to the number of living cells. Cells were incubated with the dilutions of the tested compounds for 48 hours then alamarBlue was added to them for 4 hours. After that the fluorescence changes were detected using excitation at 540 nm and emission wavelength of 590 nm by a Wallac 1420 Microplate Reader. IC50 values were determined for the compounds using six concentrations and duplicate points for each concentration.

[3] = molecular target: MMP2 (Homo sapiens, UniProt P08253); assay: MMP activity assay (fluorogenic substrate), MMP2 catalytic domain; type: biochemical; conditions: Table 2; read-out: MMP2 IC50
Experimental: as §1, §2, §3

[4] = Cytotoxicity, alamarBlue viability, MRC-5; type: cell-based; conditions: human, MRC-5 fibroblast cells, 48 hours incubation, read-out: MRC-5 LC50
Experimental: as §4

[5] = molecular target: MMP13 (Homo sapiens (Human), UniProt P45452); assay: MMP activity assay (fluorogenic substrate), MMP13 catalytic domain; type: biochemical; conditions: Table 2; read-out: MMP13 IC50
Experimental: as §1, §2
as §3, with “The fluorescence changes, resulting from the substrate cleavage, were detected using excitation at 340 nm and emission wavelength of 405 nm using a Wallac 1420 Microplate Reader.” left out

[6] = molecular target: MMP1 (Homo sapiens (Human), UniProt P03956); assay: MMP activity assay (fluorogenic substrate), MMP1; type: biochemical; conditions: Table 2; read-out: MM1 IC50
Sequence of MMP1 (P03956 100-469, species assumed): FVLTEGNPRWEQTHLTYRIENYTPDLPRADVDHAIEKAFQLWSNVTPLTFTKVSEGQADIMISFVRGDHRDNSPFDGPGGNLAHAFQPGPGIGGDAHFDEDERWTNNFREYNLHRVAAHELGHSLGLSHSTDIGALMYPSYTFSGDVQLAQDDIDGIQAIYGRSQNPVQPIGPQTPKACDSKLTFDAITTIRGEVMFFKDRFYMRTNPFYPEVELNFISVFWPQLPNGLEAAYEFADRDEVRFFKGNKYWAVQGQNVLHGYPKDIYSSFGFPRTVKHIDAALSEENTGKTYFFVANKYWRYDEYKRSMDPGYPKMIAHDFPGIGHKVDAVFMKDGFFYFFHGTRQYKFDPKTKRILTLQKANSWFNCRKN

[7] = system: neonatal rat cardiac myocytes; assay: Cytoprotective effect in cardiac myocytes subjected to hypoxia and reoxygenation; type: cell-based
Experimental: Neonatal rat hearts were digested and isolated cardiomyocytes were plated onto 24-well plastic plates at […]. The cells were maintained at 37° C. in a humidified atmosphere of 5% CO2 and 95% air in a CO2 incubator until confluence was reached. Cultures at day 3 were used for treatments. Cells were kept under normoxic or simulated ischemic conditions, i.e. the growth medium was changed to a normoxic or hypoxic solution and the cells were incubated under 95% air and 5% CO2 or 95% N2 and 5% CO2 at 37° C. for 4 h, respectively as described in detail (Gorbe A, Giricz Z, Szunyog A, Csont T, Burley D S, Baxter G F, Ferdinandy P. Role of cGMP-PKG signaling in the protection of neonatal rat cardiac myocytes subjected to simulated ischemia/reoxygenation. Basic Res Cardiol. 105:643-650, 2010). The positive control ilomastate (0.5 microM) and MMP-inhibitors at different effective concentrations (EC 5, EC 10, EC 20, and EC50 as determined in previous test examples) were applied during normoxia or simulated ischemia and also during reoxygenation. The vehicle was DMSO. Cell viability was determined after Calcein A M fluorescent staining as described (Karliner J S, Honbo N, Summers K, Gray M O, Goetzl E J. The lysophospholipids sphingosine-1-phosphate and lysophosphatidic acid enhance survival during hypoxia in neonatal rat cardiac myocytes. J Mol Cell Cardiol, 33:1713-7, 2001). Total cell count was determined after digitonin treatment to permeabilize the cells by using propidium iodine fluorescent staining (Roy S S, Hajnoczky G. Calcium, mitochondria and apoptosis studied by fluorescence measurements. Methods. 46:213-223, 2008).

Row | Compound | IC50 [1] [µM] | CC50 at 48 h [2] [µM] | IC50 [3] [µM] | CC50 at 48 h [4] [µM] | IC50 [5] [µM] | IC50 [6] [µM] | other results
1 | CCOC(=O)c1csc(CN(Cc2ccc(F)cc2)Cc2ccc(OCc3cccnc3)cc2)n1 [Compound 2, Ethyl 2-({[(4-fluorophenyl)methyl]({[4-(pyridin-3-ylmethoxy)phenyl]methyl})amino}methyl)-1,3-thiazole-4-carboxylate] | 163 | 0.5 | 105 | 0.8 | 3.7 | 185 | 
2 | O=C(O)c1csc(CN(Cc2ccc(OCc3ccccc3)cc2)CC(c2ccccc2)c2ccccc2)n1 [Compound 6, 2-[({[4-(Benzyloxy)phenyl]methyl}(2,2-diphenylethyl)amino)methyl]-1,3-thiazole-4-carboxylic acid] |  | 3.5 |  | 18 |  |  | 
3 | O=C(O)c1csc(CN(Cc2ccccc2)Cc2ccccc2)n1 [Compound 7, 2-[(Dibenzylamino)methyl]-1,3-thiazole-4-carboxylic acid] | 13 | 73 | 10 | 117 | 3.2 | 11 | 
4 | O=C(O)c1csc(CN(Cc2ccc(OCc3cccnc3)cc2)Cc2cccc(F)c2)n1 [Compound 8, 2-[({[4-(Pyridin-3-ylmethoxy)phenyl]methyl}[(3-fluorophenyl)methyl]amino)methyl]-1,3-thiazole-4-carboxylic acid] |  |  |  |  |  |  | Cytoprotective effect, % cell survival as compared to vehicle DMSO ([7]; normoxia, EC5 concentration 0.7 microM): 99 ± 4%; Cytoprotective effect, % cell survival as compared to vehicle DMSO ([7]; normoxia, EC10 concentration 2.0 microM): 103 ± 4%; Cytoprotective effect, % cell survival as compared to vehicle DMSO ([7]; normoxia, EC20 concentration 6.0 microM): 119 ± 5 %; Cytoprotective effect, % cell survival as compared to vehicle DMSO ([7]; normoxia, EC50 concentration 18.0 microM): 127 ± 4 %; Cytoprotective effect, % cell survival as compared to vehicle DMSO ([7]; simulated ischemia, EC5 concentration 0.7 microM): 117 ± 12%; Cytoprotective effect, % cell survival as compared to vehicle DMSO ([7]; simulated ischemia, EC10 concentration 2.0 microM): 120 ± 8%; Cytoprotective effect, % cell survival as compared to vehicle DMSO ([7]; simulated ischemia, EC20 concentration 6.0 microM): 144 ± 25%; Cytoprotective effect, % cell survival as compared to vehicle DMSO ([7]; simulated ischemia, EC50 concentration 18.0 microM): 107 ± 8%
5 | O=C(O)c1csc(CN(Cc2ccc(F)cc2)Cc2ccc(OCc3ccncc3)cc2)n1 [Compound 9, 2-({[(4-Fluorophenyl)methyl]({[4-(pyridin-4-ylmethoxy)phenyl]methyl})amino}methyl)-1,3-thiazole-4-carboxylic acid] | 8.8 | 4.7 | 8 | 12 | 1.24 | 47 | 
6 | CCOC(=O)c1csc(CN(Cc2ccc(F)cc2)Cc2ccc(OCc3ccccc3)cc2)n1 [Compound 11, Ethyl 2-[({[4-(benzyloxy)phenyl]methyl}[(4-fluorophenyl)methyl]amino)methyl]-1,3-thiazole-4-carboxylate] |  | 5.8 |  | 12 |  |  | 
7 | O=C(O)c1csc(CN(Cc2ccncc2)Cc2ccc(OCc3ccccc3)cc2)n1 [Compound 13, 2[({[4-(Benzyloxy)phenyl]methyl}(pyridin-4-ylmethyl)amino)methyl]-1,3-thiazole-4-carboxylic acid] | > 500 | 20 | 54 | 11 | 1.5 | 115 | 
8 | CCOC(=O)c1csc(CN(Cc2ccc(OCc3cccnc3)cc2)Cc2cccnc2)n1 [Compound 17, Ethyl 2-[({[4-(pyridin-3-ylmethoxy)phenyl]methyl}(pyridin-3-ylmethyl)amino)methyl]-1,3-thiazole-4-carboxylate] | 230 | 47 | 195 | 15 | 19 | 200 | 
9 | CCOC(=O)c1csc(CN(Cc2ccc(F)cc2)Cc2ccc(OCc3ccncc3)cc2)n1 [Compound 18, Ethyl 2-({[(4-fluorophenyl)methyl]({[4-(pyridin-4-ylmethoxy)phenyl]methyl})amino}methyl)-1,3-thiazole-4-carboxylate] | 230 | 0.04 | > 500 | 2.9 | 13 | > 500 | 
10 | CCOC(=O)c1csc(CN(Cc2ccc(OCc3ccncc3)cc2)Cc2cccnc2)n1 [Compound 19, Ethyl 2-{[(pyridin-3-ylmethyl)({[4-(pyridin-4-ylmethoxy)phenyl]methyl})amino]methyl}-1,3-thiazole-4-carboxylate] | > 500 | 7.3 | 200 | 27 | 19 | 190 | 
11 | O=C(O)c1c[nH]c(CNCc2ccc(OCc3cccnc3)cc2)n1 [Compound 31 HCl, 2-[({[4-(Pyridin-3-ylmethoxy)phenyl]methyl}amino)methyl]-1H-imidazole-4-carboxylic acid] |  |  |  |  |  |  | Cytoprotective effect, % cell survival as compared to vehicle DMSO ([7]; normoxia, EC5 concentration 0.25 microM): 108 ± 4%; Cytoprotective effect, % cell survival as compared to vehicle DMSO ([7]; normoxia, EC10 concentration 1.0 microM): 103 ± 3%; Cytoprotective effect, % cell survival as compared to vehicle DMSO ([7]; normoxia, EC20 concentration 4.0 microM): 106 ± 4%; Cytoprotective effect, % cell survival as compared to vehicle DMSO ([7]; normoxia, EC50 concentration 16.0 microM): 103 ± 3%; Cytoprotective effect, % cell survival as compared to vehicle DMSO ([7]; simulated ischemia, EC5 concentration 0.25 microM): 116 ± 8 %; Cytoprotective effect, % cell survival as compared to vehicle DMSO ([7]; simulated ischemia, EC10 concentration 1.0 microM): 107 ± 3%; Cytoprotective effect, % cell survival as compared to vehicle DMSO ([7]; simulated ischemia, EC20 concentration 4.0 microM): 126 ± 2 %; Cytoprotective effect, % cell survival as compared to vehicle DMSO ([7]; simulated ischemia, EC50 concentration 16.0 microM): 127 ± 3 %
12 | FC(F)(F)c1cnc(CCc2ccccc2)[nH]1 [Compound 35, 2-Phenethyl-5-trifluoromethyl-1H-imidazole] | > 500 |  | > 500 |  | 500 |  | 
13 | O=C(O)c1cnc(CCc2ccccc2)[nH]1 [Compound 36, 2-Phenethyl-3H-imidazole-4-carboxylic acid] | > 500 |  | > 500 |  | 300 |  | 
14 | COC(=O)c1cnc(CCc2ccccc2)[nH]1 [Compound 37, 2-Phenethyl-3H-imidazole-4-carboxylic acid methyl ester] | 145 |  | 66 |  | > 500 |  | 
15 | O=C(c1cnc(CCc2ccccc2)[nH]1)N1CCCC1 [Compound 38, (2-Phenethyl-3H-imidazol-4-yl)-pyrrolidin-1-yl-methanone] | 80 |  | 62 |  | 54 |  | 
16 | FC(F)(F)c1cnc(-c2ccccc2)[nH]1 [Compound 39, 2-Phenyl-5-trifluoromethyl-1H-imidazole] | > 500 |  | > 500 |  | 340 |  | 
17 | O=C(O)c1cnc(-c2ccccc2)[nH]1 [Compound 40, 2-Phenyl-3H-imidazole-4-carboxylic acid] | 250 |  | 137 |  | 165 |  | 
